{"source": "patent US20230382904A1", "about": "“SUBSTITUTED 4-([1,2,4]TRIAZOLO[1,5-a]PYRIDIN-6-YL)THIOPHENE-2-CARBOXAMIDE DERIVATIVES AND USE THEREOF” (The Johns Hopkins University, priority 2020, published 2023)", "key": {"LZK": {"target": "LZK (Homo sapiens (Human), UniProt O43283)", "sequence (O43283 168-409)": "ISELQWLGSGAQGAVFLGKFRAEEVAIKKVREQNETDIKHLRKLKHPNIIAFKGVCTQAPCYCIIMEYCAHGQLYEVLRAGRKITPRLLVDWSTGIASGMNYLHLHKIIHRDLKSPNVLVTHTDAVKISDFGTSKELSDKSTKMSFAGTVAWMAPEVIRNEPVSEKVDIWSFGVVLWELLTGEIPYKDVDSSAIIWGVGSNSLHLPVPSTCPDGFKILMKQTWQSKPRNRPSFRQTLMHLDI", "assay": "LZK biochemical assay (TR-FRET, MKK7 phosphorylation)", "method_in_brief": "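Catalytic-domain LZK (10 nM) phosphorylated His-MKK7 (15 nM) with 15 μM ATP for 90 min at RT. Phospho-T275/S277 detected by Eu-anti-phospho-MKK7/XL665-anti-His TR-FRET after 16 h at 32° C, using the 665/Eu ratio. Buffer: 50 mM Hepes pH 7.5, 10 mM MgCl2, 1 mM DTT.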"}, "[1]": {"assay": "In vitro PK properties (metabolic stability)", "assay_type": "in vitro ADME", "procedure": "Metabolic stabilities in rat hepatocytes were determined by incubating the compounds at low concentrations (e.g., below 1 μM) and at low cell numbers (e.g., at 1×10^6 cells/ml) to ensure linear kinetics. 7 time-points from the incubation mixture were withdrawn for analysis to define the half-life of the compound. From that half-life the intrinsic clearance in hepatocytes was calculated and used further to extrapolate the blood clearance (using the well-stirred model) and the corresponding Fmax value (maximum expected bioavailability after first pass of the liver) for the compounds. The CL and Fmax values reflect Phase I and II metabolism in hepatocytes. To minimize the influence of organic solvents in the incubation mixture their content was limited to max. 1% for ACN or max. 0.2% for DMSO. The values given in row 5 in the table in FIG. 1 are rat hepatocytes CLblood [L/h/kg] and rat hepatocytes Fmax [%]."}, "[2]": {"assay": "In vitro PhysChem properties", "assay_type": "physicochemical"}, "DLK pathway activation": {"system": "DLK pathway activation", "assay": "Mouse optic nerve crush, p-JUN immunoreactivity in RGC layer", "assay_type": "in vivo", "conditions": "compared to RGCs treated with the vehicle", "procedure": "Approximately three-month-old male C57BL/6 mice were anesthetized with 100/10 mg/kg of Ketamine/Xylazine followed by topical administration of proparacaine. Under the binocular operating scope, optic nerves were surgically exposed and crushed with Dumont N7 self-closing forceps 1-2 mm behind the globe. A small incision was made at the conjunctiva located at lateral orbit of eye globe using spring scissors. To avoid bleeding from the vasculature, minimum incision was continued until the optic nerve was exposed. After clean exposure, the optic nerve was grasped at approximately 1-2 mm from the globe for 3-7 seconds using the fine micro forceps. After careful removal of the micro forceps, the globe was relocated and Tobramycin was administered. Ten days after nerve crush, eyes were enucleated and fixed and surviving RGC was immunostained for SNCG, RBPMS and βIII-tubulin. The retinas were then imaged with a Nikon Eclipse TE2000-5 fluorescence microscope and Plan-fluor 40 Å˜/0.6 objective. […] RGCs were counted manually from each image. In a separate cohort of animals, optic nerves and retinas were sectioned and stained for phospho-JUN (an indicator of DLK pathway activation) 24 hours after optic nerve crush. Intravitreal injection, optic nerve crush, immunofluorescence, and RGC counting were performed in a masked fashion."}, "[3]": {"assay": "Mouse light damage model (serial OCT and serial ERG)", "assay_type": "in vivo", "conditions": "versus vehicle", "procedure": "After two weeks (14 days) acclimation in dim light (under 10-30 lux), female BALBc/J (10-12 weeks) were dark-adapted for 24 hrs. All compound injections were done in darkness with din-red light as needed. All mice were placed in light box after applying dilator (tropicamide or phenylephirine) topically. Then light was left on for 4 h with ˜3000 lux followed by dark recovery at the same condition with dark adaptation until any experimental procedure is ready or being placed in dim light condition (under 10-30 lux). Mice were then followed for 3-7 days with OCT, ERG, functional testing, and/or immunohistochemical analysis."}, "[4]": {"system": "primary murine retinal ganglion cells", "assay": "Retinal ganglion cell (RGC) viability assay", "assay_type": "cell-based", "conditions": "among compounds 4, 19, 94 and 112", "procedure": "The RGC assay detected the viability of primary murine retinal ganglion cells via Cell Titer Glo (Promega), using a previously described assay (Proc. Natl. Acad. Sci. USA. 2013, 110(10), 4045-50), which is incorporated herein by reference in its entirety.\nRGCs were freshly isolated from approximately P2 murine retinas by immunopanning using mouse anti-CD90 coated plates. Cells are seeded into poly-D-lysine or laminin coated plates in Neurobasal medium supplemented by 1% Pen/Strep (Gibco 15140-122), 0.01 mg/ml insulin, 1 mM sodium pyruvate, 1% of 100× Sato (400 mg transferrin, 400 mg BSA, 0.25 mg progesterone, 64 mg putrescine, 160 μg sodium selenite in 40 mL Neurobasal medium), 0.04 μg/ml triiodo-thyronine, 2 mM L-glutamine, 0.05 mg/ml N-acetyl cysteine, 10 μM forskolin, 2% 50× B27 (Gibco 17504-044).\nFor the assay 500-2000 cells per well in a volume of 40 μl were used (384 MTP format). After 72 hours 20 μl Cell Titer Glo reagent was added and viability is measured via luminescent quantitation of ATP. The amount of ATP was directly proportional to the number of cells present in culture."}}, "data": [{"smiles": "CC[C@H](NC(=O)c1cc(-c2cc(C(=O)N[C@@H](C)CC)c3nc(N)nn3c2)cs1)c1ccc(F)cc1", "note": "[Compound 112, 2-Amino-N-[(2S)-butan-2-yl]-6-(5-{[(1S)-1-(4-fluorophenyl)propyl]carbamoyl}thiophen-3-yl)[1,2,4]triazolo[1,5-a]pyridine-8-carboxamide]", "values": [{"measurement": "IC50", "setting": "LZK", "value": 29, "unit": "nM"}, {"measurement": "metabolic stability", "setting": "[1]", "value": "metabolically labile"}, {"measurement": "chemical stability", "setting": "[2]", "value": "chemically stable"}, {"measurement": "p-cJun intensity in the RGCs", "setting": "DLK pathway activation", "value": "decreased"}, {"measurement": "a wave amplitude in photoreceptors", "setting": "[3]; serial ERG", "value": "higher"}, {"measurement": "b wave amplitude in inner retinal cells", "setting": "[3]; serial ERG", "value": "higher"}, {"measurement": "outer retinal layer (ORL) thickness", "setting": "[3]; serial OCT", "value": "higher"}, {"measurement": "activity in RGC assay", "setting": "[4]", "value": "most active"}]}]}
